Experiment [1] relates to ALOMY. The experiment can be described thus: Pre-emergence herbicidal action against ALOMY. Format: in vivo, Alopecurus myosuroides. The conditions noted are these: 80 g/ha, pre-emergence, scored visually after 3 weeks vs untreated controls (100% = plants have died, 0% = like control plants). Summed up:
(§1)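 Sandy loam pots, seeds covered with soil, then surface-treated with WP or EC formulations at 600–800 l/ha water plus 0.2% wetting agent. Greenhouse, 3 weeks. Percent damage vs untreated controls.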

The test system of experiment [2] is SETVI. The experiment can be described thus: Pre-emergence herbicidal action against SETVI. Type of experiment: in vivo, Setaria viridis. Summed up:
as §1

Another experiment concerns POLCO. The experiment can be described thus: Pre-emergence herbicidal action against POLCO. Type of experiment: in vivo, Polygonum convolvulus. The settings on record: dosage 80 g/ha. The source says: Seeds of monocotyledonous and dicotyledonous weed plants and crop plants are laid out in sandy loam soil in wood-fiber pots and covered with soil. The compounds of the invention, formulated in the form of wettable powders (WP) or as emulsion concentrates (EC), are then applied to the surface of the covering soil in the form of an aqueous suspension or emulsion at a water application rate equivalent to 600 to 800 l/ha, with addition of 0.2% wetting agent. After the treatment, the pots are placed in a greenhouse and kept under good growth conditions for the trial plants. The damage to the test plants is scored visually after a test period of 3 weeks by comparison with untreated controls (herbicidal activity in percent (%): 100% activity=the plants have died, 0% activity=like control plants). […] The tables below illustrate, in an illustrative manner, the post-emergence herbicidal action of the compounds of the invention, the herbicidal activity being stated in percent.

In experiment [3] the test system is PHBPU. The experiment can be described thus: Pre-emergence herbicidal action against PHBPU. The conditions noted are these: dosage 80 g/ha. Format: in vivo, Pharbitis purpurea. The method in brief: as §1
Experiment [4] has as its system ECHCG. The experiment is described as follows: Pre-emergence herbicidal action against ECHCG. The settings on record: 80 g/ha. Format: in vivo, Echinochloa crus-galli. The method in brief: as §1
Experiment [5] has as its system AMARE. The experiment is described as follows: Post-emergence herbicidal action against AMARE. Format: in vivo, Amaranthus retroflexus. The settings on record: 20 g/ha, visual assessment about 3 weeks after treatment, 100% = plants have died, 0% = like control plants. The method in brief:
(§2)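 Visual % rating (0% = as untreated, 100% = dead) ~3 wk after spraying one-leaf-stage plants grown in sandy loam; WP/EC in water at 600–800 l/ha, 0.2% wetting agent.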

The test system of experiment [6] is VIOTR. The experiment is described as follows: Pre-emergence herbicidal action against VIOTR. Format: in vivo, Viola tricolor. The conditions noted are these: dosage 80 g/ha. Summed up: as §1
For experiment [7], the system named is ECHCG. The experiment is described as follows: Post-emergence herbicidal action against ECHCG. Type of experiment: in vivo, Echinochloa crus-galli. The method in brief:
as §2

Experiment [8] has as its system PHBPU. The experiment can be described thus: Post-emergence herbicidal action against PHBPU. Format: in vivo, Pharbitis purpurea. The settings on record: dosage 20 g/ha. Summed up: as §2
For experiment [9], the system named is DIGSA. The experiment can be described thus: Pre-emergence herbicidal action against DIGSA. Format: in vivo, Digitaria sanguinalis. The method in brief:
as §1

The test system of experiment [10] is AMARE. The experiment is described as follows: Pre-emergence herbicidal action against AMARE. Format: in vivo, Amaranthus retroflexus. The method in brief: as §1
A further experiment deals with MATIN. The experiment can be described thus: Pre-emergence herbicidal action against MATIN. Type of experiment: in vivo, Matricaria inodora. The method in brief: as §1
In experiment [11] the test system is VERPE. The experiment is described as follows: Post-emergence herbicidal action against VERPE. Format: in vivo, Veronica persica. The settings on record: 20 g/ha. The method in brief:
as §2

The test system of experiment [12] is DIGSA. The experiment is described as follows: Post-emergence herbicidal action against DIGSA. Type of experiment: in vivo, Digitaria sanguinalis. The settings on record: 20 g/ha. Summed up: as §2
Experiment [13] concerns ABUTH. The experiment can be described thus: Pre-emergence herbicidal action against ABUTH. Format: in vivo, Abutilon theophrasti. Summed up:
as §1

For experiment [14], the system named is ABUTH. The experiment is described as follows: Post-emergence herbicidal action against ABUTH. The settings on record: dosage 20 g/ha, visual assessment about 3 weeks after treatment vs untreated controls. Format: in vivo, Abutilon theophrasti. The method in brief: as §2
Experiment [15] concerns SETVI. The experiment is described as follows: Post-emergence herbicidal action against SETVI. The settings on record: dosage 20 g/ha. Format: in vivo, Setaria viridis. Summed up:
as §2

In experiment [16] the test system is ALOMY. The experiment can be described thus: Post-emergence herbicidal action against ALOMY. The conditions noted are these: dosage 20 g/ha, visual assessment about 3 weeks after treatment vs untreated controls. Type of experiment: in vivo, Alopecurus myosuroides. Summed up: as §2
In experiment [17] the test system is VIOTR. The experiment can be described thus: Post-emergence herbicidal action against VIOTR. Format: in vivo, Viola tricolor. The conditions noted are these: 20 g/ha. Summed up:
as §2

For experiment [18], the system named is VERPE. The experiment is described as follows: Pre-emergence herbicidal action against VERPE. Format: in vivo, Veronica persica. The method in brief: as §1
Where [19] appears, read: 20 g/ha, scored visually after 3 weeks vs untreated controls, 100% = plants have died, 0% = like control plants.
Setting [20] is: 80 g/ha, scored visually after 3 weeks vs untreated controls (100% = plants have died, 0% = like control plants).

In the case of `CCn1nnnc1NC(=O)c1ccc(C(F)(F)F)c(C(=O)NCC2CCCO2)c1Cl` (stereo not shown) [Example 2-141], the “Pre-emergence action against ALOMY (herbicidal activity)” value in the experiment on ALOMY [1] worked out at 90%. For the same molecule, the “Pre-emergence action against SETVI in %” value amounted to 90% with SETVI [2] (dosage 20 g/ha) and 100% in the experiment on SETVI [2] (dosage 80 g/ha). For the same molecule, the “Pre-emergence action against POLCO in %” value in the experiment on POLCO is on record as 80%. Also, the “Pre-emergence action against PHBPU in %” value in the experiment on PHBPU [3] came to 80%. For the same molecule, the “Pre-emergence action against ECHCG in %” value in the experiment with ECHCG [4] turned out to be 80%. Moreover, in the experiment on AMARE [5], the “Post-emergence action at 20 g/ha against AMARE in %” value came out at 80%. The “Pre-emergence action against VIOTR in %” value with VIOTR [6] was determined as 90%. For the same molecule, the “Post-emergence action against ECHCG in %” value with ECHCG [7] (dosage 20 g/ha) was found to be 80%. Further, in the experiment with PHBPU [8], the “Post-emergence action against PHBPU in %” value was 80%. Further, the “Pre-emergence action against DIGSA in %” value in the experiment on DIGSA [9] (dosage 80 g/ha) is given as 90%. Also, the “Pre-emergence action against AMARE in %” value in the experiment with AMARE [10] (setting [19]) and with AMARE [10] (setting [20]) was 100% in each case. For the same molecule, the “Pre-emergence action against MATIN in %” value worked out at 80% with MATIN (dosage 20 g/ha) and 90% with MATIN (dosage 80 g/ha).

In the case of `CCn1nnnc1NC(=O)c1ccc(C(F)F)c(C(=O)NCCOC)c1Cl` [Example 2-156], the “Pre-emergence action against ALOMY (herbicidal activity)” value with ALOMY [1] is 100%. The “Pre-emergence action against SETVI in %” value in the experiment on SETVI [2] (dosage 80 g/ha) is 100%. Further, the “Post-emergence action against VERPE in %” value in the experiment on VERPE [11] was determined as 90%. The “Pre-emergence action against POLCO in %” value in the experiment with POLCO is 90%. Also, in the experiment on DIGSA [12], the “Post-emergence action against DIGSA” value was found to be 80%. The “Pre-emergence action against ECHCG in %” value in the experiment on ECHCG [4] worked out at 100%. Besides, the “Post-emergence action at 20 g/ha against AMARE in %” value in the experiment on AMARE [5] came out at 90%. Further, the “Pre-emergence action against VIOTR in %” value with VIOTR [6] was determined as 100%. Further, the “Post-emergence action against ECHCG in %” value in the experiment with ECHCG [7] (dosage 5 g/ha) and in the experiment on ECHCG [7] (dosage 20 g/ha) was 90% each time. Besides, the “Pre-emergence action against ABUTH (herbicidal activity)” value with ABUTH [13] (setting [20]) came to 100%. Also, in the experiment with ABUTH [13] (dosage 20 g/ha, scored visually after 3 weeks vs untreated controls, 100% = plants have died, 0% = like control plants), the “Pre-emergence action against ABUTH (herbicidal activity in percent)” value is given as 100%. Further, the “Post-emergence action against ABUTH in %” value with ABUTH [14] worked out at 90%. In addition, in the experiment on SETVI [15], the “Post-emergence action against SETVI in %” value was determined as 80%. For the same molecule, the “Post-emergence action against PHBPU in %” value in the experiment on PHBPU [8] came out at 90%. Besides, the “Pre-emergence action against DIGSA in %” value in the experiment on DIGSA [9] (dosage 20 g/ha) and in the experiment with DIGSA [9] (dosage 80 g/ha) was 100% each time. Moreover, the “Post-emergence action against ALOMY in %” value in the experiment with ALOMY [16] is listed as 90%. The “Pre-emergence action against AMARE in %” value in the experiment on AMARE [10] (setting [19]) and in the experiment with AMARE [10] (setting [20]) was 100% throughout. Further, the “Pre-emergence action against MATIN in %” value with MATIN (dosage 20 g/ha) and with MATIN (dosage 80 g/ha) was 100% in each case. Moreover, the “Post-emergence action against VIOTR in %” value with VIOTR [17] was found to be 80%. Moreover, the figures for the “Pre-emergence action against VERPE in %” value in the experiment with VERPE [18] (dosage 20 g/ha) and in the experiment on VERPE [18] (dosage 80 g/ha) were 80% and 100%, respectively.

The values are drawn from patent US12655116B2, “Substituted isophthalic acid diamides” (Bayer Aktiengesellschaft, priority 2020, dated 2026).
